# Results: the RepoRT retention time repository (doi:10.1021/acs.analchem.2c02893)
# Columns and labels:
# Details in all cases: stereoisomer not certain
# [1] = RP, Waters ACQUITY UPLC BEH C18, 100 × 2.1 mm, 1.7 µm, 30 °C, 0.35 mL/min, estimated dead time 0.63 min; A: water + 0.01% formic acid + 5 mM ammonium formate, pH 3.71; B: acetonitrile + 0.01% formic acid, pH 3.71; gradient (min/%B) 0/10 3/10 22/100 30/100 30.1/10 40/10
# [2] = RP, Thermo Scientific Acclaim RSLC 120 C18, 100 × 2.1 mm, 2.2 µm, 30 °C, 0.2 mL/min, estimated dead time 1.1 min; A: water + 0.1% formic acid, pH 2.6; B: methanol + 0.1% formic acid, pH 2.6; gradient (min/%B) 0/10 4/50 17/95 25/95 25.1/10 30/10
# [3] = RP, Thermo Scientific Acclaim RSLC 120 C18, 100 × 2.1 mm, 2.2 µm, 30 °C, 0.2 mL/min, estimated dead time 1.1 min; A: 90% water + 10% methanol + 0.01% formic acid + 5 mM ammonium formate, pH 3.61; B: methanol + 0.01% formic acid + 5 mM ammonium formate, pH 3.61; gradient (min/%B) 0/1 1/1 2/39 13/99.9 15/99.9 15.1/1 20.1/1
# [4] = RP, Waters ACQUITY UPLC BEH C18, 100 × 2.1 mm, 1.7 µm, 35 °C, 0.35 mL/min, estimated dead time 0.63 min; A: water + 0.01% formic acid + 5 mM ammonium formate, pH 3.71; B: acetonitrile + 0.01% formic acid, pH 3.71; gradient (min/%B) 0/5 0.5/5 16/95 16.1/99 19/99 19.1/5 21/5
SMILES,LC retention time [1],LC retention time [2],LC retention time [3],LC retention time [4]
CC12CCC(O)CC1CCC1C2C(=O)CC2(C)C1CCC2(O)C(=O)CO (centres undefined),9.93 min,11.2 min,9.21 min,7.37 min
CCOC(=O)c1ccccc1C(=O)OCC [Phthalate-Diethyl],12.2 min,10.2 min,8.5 min,9.21 min
CCOP(=O)(OCC)OCC [Phosphate-triethyl],7.31 min,6.94 min,6.16 min,5.48 min
CC(C)NCC(O)c1ccc(N)c(C#N)c1 (centres undefined) [Cimaterol],1.48 min,2.51 min,2.99 min,2.1 min
CCSCc1ccccc1OC(=O)NC [Ethiofencarb],10.7 min,9.05 min,7.7 min,8.02 min
CCN(C)C(=O)Oc1cccc(C(C)N(C)C)c1 (centres undefined) [Rivastigmine],6.53 min,4.86 min,4.74 min,4.78 min
COCC(NC(C)=O)C(=O)NCc1ccccc1 (centres undefined) [Lacosamide],5.76 min,5.79 min,5.09 min,4.46 min
O=P(Oc1ccccc1)(Oc1ccccc1)Oc1ccccc1 [Phosphate-Triphenyl],15.5 min,14.3 min,11 min,11.8 min
COc1cc2c(c(OC)c1OC)-c1ccc(OC)c(=O)cc1C(NC(C)=O)CC2 (centres undefined) [Colchicine],8.29 min,7.17 min,6.43 min,5.99 min
CCNc1nc(Cl)nc(NC(C)C)n1 [Atrazine],10.3 min,9.72 min,8.16 min,7.82 min
CCN1CCN(C(=O)NC(C(=O)NC2C(=O)N3C(C(=O)O)=C(CSc4nnnn4C)CSC23)c2ccc(O)cc2)C(=O)C1=O (centres undefined) [Cefoperazone],6.08 min,5.37 min,4.36 min,4.19 min
CNC(=O)ON=C(C)C(C)SC (centres undefined) [Butocarboxim],7.64 min,6.82 min,6.07 min,5.7 min

# Next, values leading:
LC retention time [1],LC retention time [2],LC retention time [3],LC retention time [4],SMILES
2.43 min,4.69 min,4.23 min,3.08 min,Cn1c(=O)c2c(ncn2C)n(C)c1=O [Caffeine]
5.54 min,4.46 min,4.42 min,4.13 min,O=C(O)c1cn(C2CC2)c2cc(N3CCNCC3)c(F)cc2c1=O [Ciprofloxacin]
9.74 min,9.38 min,7.83 min,7.21 min,CCCCOc1ccc(CC(=O)NO)cc1 [Bufexamac]
1.23 min,3.37 min,3.28 min,1.65 min,Cn1cnc2c1c(=O)[nH]c(=O)n2C [Theobromine]
3.36 min,3.67 min,3.88 min,3.48 min,COc1ccc(Cc2cnc(N)nc2N)cc1OC [Diaveridine]
14.4 min,15.4 min,11.8 min,11 min,Cc1cccc(C)c1OCC(=O)NC(Cc1ccccc1)C(O)CC(Cc1ccccc1)NC(=O)C(C(C)C)N1CCCNC1=O (centres undefined) [Lopinavir]
1.59 min,3.52 min,3.48 min,2 min,CC(=O)Nc1ccc(O)cc1 [Paracetamol]
3.69 min,5.31 min,4.76 min,3.61 min,c1ccc2n[nH]nc2c1 [Benzotriazole (BTR)]
8.91 min,6.27 min,6.59 min,6.49 min,CC(C)NCC(O)COc1cccc2ccccc12 (centres undefined) [Propranolol]
